{"source": "patent US11744898B2", "about": "“Multi-arm polymer conjugates of TLR agonist compounds and related immunotherapeutic treatment methods” (Nektar Therapeutics, priority 2017, dated 2023)", "key": {"CT26 tumor cells": {"tested_on": "CT26 tumor cells", "assay": "Murine CT-26 colon tumor model, two flanks; 800 μg 4-arm-PEG20k-CM-N-R848 intra-/peritumorally day 0, RSLAIL-2 0.8 mg/kg i.v. days 0, 9, 18", "format": "in vivo, Balb/c mice"}, "TLR7/8": {"tested_on": "TLR7/8", "assay": "TLR7/8-dependent cytokine production in plasma after single 10 μg intratumoral administration, CT26 tumor bearing mice", "format": "in vivo, Balb/c mice", "description": "Hank's Balanced Salt Solution) was administered intratumorally to Balb/c mice bearing CT26 tumor. […] (Conjugate doses and concentrations are expressed based on TLR 7/8 agonist (e.g., resiquimod or other TLR 7/8 agonist) content, wherein the mass of the TLR 7/8 agonist is expressed independent of PEG mass). Plasma was collected at pre-determined time points for analysis of level of IFN-gamma, IL-2, IL-4, IL5, IL-6, IL-1 beta, IL-10, IL-12p70, KC/GRO, TNF-alpha, and IFN-alpha. For assessing IFN-gamma, IL-2, IL-4, IL5, IL-6, IL-1 beta, IL-10, IL-12p70, KC/GRO, and TNF alpha, an electrochemiluminescence assay was performed on duplicate samples using capture antibody precoated 96 well multispot plates from Meso Scale Discovery (MSD; Gaithersburg, Md., US). […] Plates were immediately read using SECTOR Imager 2400 and data was quantitated using Discovery Workbench software version 4.0 (MSD, Gaithersburg, Md., US). Mouse IFN alpha was measured with the Verikine mouse Interferon-Alpha ELISA kit (PBL, Piscataway, N.J., USA), according to the instructions of the manufacturer. After the addition of a stop solution, the absorbance at 450 nm was determined using BioTek μQuant microplate reader (Biotek; Winooski, Vt., USA). The ELISA data was quantitated using Biotek Gen5 software (Biotek; Winooski, Vt., USA). Data are represented as the mean of the fold-change of replicates."}, "hTLR7": {"molecular_target": "T1, hTLR7 (Homo sapiens, UniProt Q9NYK1)", "T1 construct": "expressed in transfected cells; host or cells: HEK293", "T1 sequence (Q9NYK1 27-1049)": "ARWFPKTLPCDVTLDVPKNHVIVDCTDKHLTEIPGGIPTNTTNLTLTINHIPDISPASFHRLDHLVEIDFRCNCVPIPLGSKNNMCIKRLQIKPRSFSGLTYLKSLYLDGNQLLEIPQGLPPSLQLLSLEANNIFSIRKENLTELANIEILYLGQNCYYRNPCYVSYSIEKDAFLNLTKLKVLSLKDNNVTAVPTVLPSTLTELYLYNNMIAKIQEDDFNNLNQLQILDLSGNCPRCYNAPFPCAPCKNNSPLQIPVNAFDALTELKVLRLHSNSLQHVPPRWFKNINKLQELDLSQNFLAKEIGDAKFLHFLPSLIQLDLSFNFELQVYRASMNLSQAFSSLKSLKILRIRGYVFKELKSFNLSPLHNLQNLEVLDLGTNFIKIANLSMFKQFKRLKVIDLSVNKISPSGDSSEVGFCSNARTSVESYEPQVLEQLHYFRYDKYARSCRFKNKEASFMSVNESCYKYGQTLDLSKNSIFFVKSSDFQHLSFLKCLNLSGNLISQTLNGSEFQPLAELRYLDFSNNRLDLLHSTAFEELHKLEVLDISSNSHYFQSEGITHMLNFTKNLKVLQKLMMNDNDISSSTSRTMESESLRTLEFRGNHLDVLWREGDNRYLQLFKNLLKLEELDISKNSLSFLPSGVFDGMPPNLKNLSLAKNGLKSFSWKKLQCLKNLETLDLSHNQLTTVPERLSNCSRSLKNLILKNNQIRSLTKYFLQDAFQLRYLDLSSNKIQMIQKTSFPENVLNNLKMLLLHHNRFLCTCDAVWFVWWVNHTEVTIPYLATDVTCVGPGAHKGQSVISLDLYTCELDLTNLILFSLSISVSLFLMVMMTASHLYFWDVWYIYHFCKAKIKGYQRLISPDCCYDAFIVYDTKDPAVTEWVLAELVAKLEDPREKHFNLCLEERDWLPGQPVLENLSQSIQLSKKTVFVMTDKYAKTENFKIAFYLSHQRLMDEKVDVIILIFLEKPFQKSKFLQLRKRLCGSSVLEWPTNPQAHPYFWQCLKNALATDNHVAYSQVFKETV", "assay": "SEAP reporter gene assay in HEK293 cells stably transfected with human TLR receptor", "format": "cell-based", "conditions": "downstream hTLR7 and hTLR8", "excerpt": "Parental cell lines (Null1 and Null1K, stably transfected with the SEAP reports but without hTLR receptor expression) were used as negative controls."}, "[1]": {"tested_on": "bilateral CT26 subcutaneous tumors"}, "TLR7 pathway": {"tested_on": "TLR7 pathway", "conditions": "2 hours and 6 hours following treatment with Compound 6", "description": "Cytokine analysis (in CT26 tumor-bearing mice): Tumor and plasma samples were obtained at multiple time points following administration for cytokine analysis. RNA was isolated from treated tumors to assess induction of type I interferon- and NFκB-dependent gene expression. A panel of pro-inflammatory cytokines was measured from tumor tissue and plasma by multiplex protein measurement assay."}, "[2]": {"tested_on": "proinflammatory cytokines IFNα, IFNγ, TNFα, IL-6 and IL-12", "assay": "Plasma cytokine induction after Compound 6 or resiquimod with staggered RSLAIL-2 in CT26 model", "format": "in vivo, Balb/c mice", "description": "The concentration of proinflammatory cytokines IFNα, IFNγ, TNFα, IL-6 and IL-12 was determined in plasma by multiplex protein measurement assay at indicated time points post dose."}, "[3]": {"conditions": "2 hours after single 10 μg intratumoral administration"}, "[4]": {"conditions": "6 hours after single 10 μg intratumoral administration"}, "[5]": {"conditions": "plasma, 10 μg intra/peritumoral"}}, "note": "Like-named read-outs stand apart in the source and are kept apart here."}
{"substance": "4-arm-PEG20k-CM-N—R848 [Compound 1]", "values": [{"measurement": "Survival Proportions", "setting": "CT26 tumor cells; day 0 after treatment start", "result": 100, "unit": "%"}, {"measurement": "Survival Proportions", "setting": "CT26 tumor cells; day 12 after treatment start", "result": 80, "unit": "%"}, {"measurement": "Survival Proportions", "setting": "CT26 tumor cells; day 16 after treatment start", "result": 70, "unit": "%"}, {"measurement": "Survival Proportions", "setting": "CT26 tumor cells; day 19 after treatment start", "result": 40, "unit": "%"}, {"measurement": "Survival Proportions", "setting": "CT26 tumor cells; day 21 after treatment start", "result": 30, "unit": "%"}, {"measurement": "Survival Proportions", "setting": "CT26 tumor cells; day 47 after treatment start (end of experiment)", "result": 30, "unit": "%"}, {"measurement": "animals with a complete response (both treated and untreated side tumors eliminated)", "setting": "CT26 tumor cells; end of experiment, day 47", "result": 20, "unit": "%"}, {"measurement": "animals with a partial response (one of the two tumors eradicated)", "setting": "CT26 tumor cells; end of experiment, day 47", "result": 10, "unit": "%"}]}
{"substance": "4-arm-PEG20k-CM-glycine-N-R848 [Compound 6]", "values": [{"measurement": "IFNa fold change (treated/vehicle)", "setting": "TLR7/8; [3]", "result": "+ (+<50)"}, {"measurement": "IL6 fold change (treated/vehicle)", "setting": "TLR7/8; [3]", "result": "++ (50≤++<200)"}, {"measurement": "IL12 fold change (treated/vehicle)", "setting": "TLR7/8; [3]", "result": "+ (+<50)"}, {"measurement": "KC/GRO fold change (treated/vehicle)", "setting": "TLR7/8; [3]", "result": "+ (+<50)"}, {"measurement": "TNFa fold change (treated/vehicle)", "setting": "TLR7/8; [3]", "result": "+ (+<50)"}, {"measurement": "IFNg fold change (treated/vehicle)", "setting": "TLR7/8; [4]", "result": "+++ (10≤+++<20)"}, {"measurement": "IL10 fold change (treated/vehicle)", "setting": "TLR7/8; [4]", "result": "+ (+<5)"}, {"measurement": "fold higher concentration for reporter activation compared to resiquimod", "setting": "hTLR7", "result": "> 20", "unit": "fold"}, {"measurement": "Survival Proportions", "setting": "EMT6 tumor cells; day 0 after treatment start", "result": "++++ (75%≤++++<100%)"}, {"measurement": "Survival Proportions", "setting": "EMT6 tumor cells; day 3 after treatment start", "result": "++++ (75%≤++++<100%)"}, {"measurement": "Survival Proportions", "setting": "EMT6 tumor cells; day 8 after treatment start", "result": "++++ (75%≤++++<100%)"}, {"measurement": "Survival Proportions", "setting": "EMT6 tumor cells; day 13 after treatment start", "result": "++++ (75%≤++++<100%)"}, {"measurement": "Survival Proportions", "setting": "EMT6 tumor cells; day 15 after treatment start", "result": "++++ (75%≤++++<100%)"}, {"measurement": "Survival Proportions", "setting": "EMT6 tumor cells; day 20 after treatment start", "result": "+++ (50%≤+++<75%)"}, {"measurement": "Survival Proportions", "setting": "EMT6 tumor cells; day 27 after treatment start", "result": "++ (25%≤++<50%)"}, {"measurement": "Survival Proportions", "setting": "EMT6 tumor cells; day 34 after treatment start", "result": "+ (0%≤+<25%)"}, {"measurement": "Survival Proportions", "setting": "EMT6 tumor cells; day 42 after treatment start", "result": "+ (0%≤+<25%)"}, {"measurement": "Survival Proportions", "setting": "EMT6 tumor cells; day 48 after treatment start", "result": "+ (0%≤+<25%)"}, {"measurement": "Survival Proportions", "setting": "EMT6 tumor cells; day 55 after treatment start", "result": "none"}, {"measurement": "survival of the animals", "setting": "EMT6 tumor cells; end of the study at day 55 after commencement of dosing", "result": "no surviving animals"}, {"measurement": "CD8+ T cells in tumors", "setting": "[1]; after combination treatment with RSLAIL-2 (0.8 mg/kg i.v. four days after Compound 6), day 7", "result": "selective Compound 6-dose dependent increase"}, {"measurement": "relative fraction of regulatory T cells in tumors", "setting": "[1]; after combination treatment with RSLAIL-2, day 7", "result": "decreased dramatically"}, {"measurement": "CD8:Treg ratio in the blood", "setting": "[1]; both treatment groups (10 μg or 0.1 μg) after RSLAIL-2", "result": "overall reduction"}, {"measurement": "intratumoral neutrophils in treated tumors", "setting": "[1]; one day after treatment, 10 μg dose", "result": "increase in intratumoral neutrophils"}, {"measurement": "concentration of systemic cytokines compared with tumor (IL-6, KC/GRO, TNF-α, IL-1β, IL-5, IFN-α, IFN-γ, IL-2, IL-12p70)", "setting": "TLR7 pathway", "result": "significantly less than that in the tumor"}, {"measurement": "induction of cytokines in plasma, in words", "setting": "[2]; 1 μg single intra/peritumoral dose", "result": "very modest induction of all cytokines in plasma"}, {"measurement": "pro-inflammatory cytokine induction in blood, in words", "setting": "[2]; 10 μg single intra/peritumoral dose", "result": "robust pro-inflammatory cytokine induction in blood"}, {"measurement": "time of peak level of IFN-γ", "setting": "[2]; [5]", "result": 6, "unit": "h"}, {"measurement": "time of peak levels of IFNα, TNFα, IL-6 and IL-12", "setting": "[2]; [5]", "result": 2, "unit": "h"}]}
